Reference: the OligoGym collection
Oligonucleotides are given in HELM: sugar(base)linkage, 5' to 3'; d 2'-deoxyribose, r ribose, m 2'-O-methylribose, p phosphate. ss, as = sense and antisense strand

biological target: Mmp7 (rat); experiment: reporter assay of Huesken 2005; settings: siRNA
Further: test concentration or dose not given here.

Substance	normalised inhibition (eCFP-eYFP dual reporter)
RNA1{r(G)p.r(G)p.r(G)p.r(G)p.r(C)p.r(C)p.r(A)p.r(G)p.r(G)p.r(C)p.r(C)p.r(U)p.r(C)p.r(G)p.r(G)p.r(C)p.r(G)p.r(G)p.r(A)p.d(T)p.d(T)}|RNA2{r(U)p.r(C)p.r(C)p.r(G)p.r(C)p.r(C)p.r(G)p.r(A)p.r(G)p.r(G)p.r(C)p.r(C)p.r(U)p.r(G)p.r(G)p.r(C)p.r(C)p.r(C)p.r(C)p.d(G)p.d(G)}$$$RNA1{StrandType:ss}|RNA2{StrandType:as}$	50.8%
RNA1{r(G)p.r(G)p.r(U)p.r(C)p.r(U)p.r(G)p.r(G)p.r(G)p.r(U)p.r(C)p.r(A)p.r(C)p.r(U)p.r(C)p.r(U)p.r(U)p.r(C)p.r(U)p.r(G)p.d(T)p.d(T)}|RNA2{r(C)p.r(A)p.r(G)p.r(A)p.r(A)p.r(G)p.r(A)p.r(G)p.r(U)p.r(G)p.r(A)p.r(C)p.r(C)p.r(C)p.r(A)p.r(G)p.r(A)p.r(C)p.r(C)p.d(C)p.d(A)}$$$RNA1{StrandType:ss}|RNA2{StrandType:as}$	73.8%
RNA1{r(G)p.r(G)p.r(U)p.r(G)p.r(A)p.r(G)p.r(G)p.r(A)p.r(C)p.r(U)p.r(C)p.r(A)p.r(G)p.r(G)p.r(C)p.r(G)p.r(U)p.r(G)p.r(A)p.d(T)p.d(T)}|RNA2{r(U)p.r(C)p.r(A)p.r(C)p.r(G)p.r(C)p.r(C)p.r(U)p.r(G)p.r(A)p.r(G)p.r(U)p.r(C)p.r(C)p.r(U)p.r(C)p.r(A)p.r(C)p.r(C)p.d(A)p.d(T)}$$$RNA1{StrandType:ss}|RNA2{StrandType:as}$	94.6%
RNA1{r(G)p.r(G)p.r(U)p.r(U)p.r(U)p.r(G)p.r(C)p.r(C)p.r(G)p.r(G)p.r(A)p.r(G)p.r(A)p.r(C)p.r(U)p.r(G)p.r(G)p.r(A)p.r(A)p.d(T)p.d(T)}|RNA2{r(U)p.r(U)p.r(C)p.r(C)p.r(A)p.r(G)p.r(U)p.r(C)p.r(U)p.r(C)p.r(C)p.r(G)p.r(G)p.r(C)p.r(A)p.r(A)p.r(A)p.r(C)p.r(C)p.d(G)p.d(A)}$$$RNA1{StrandType:ss}|RNA2{StrandType:as}$	103%
RNA1{r(G)p.r(U)p.r(C)p.r(A)p.r(U)p.r(G)p.r(G)p.r(A)p.r(G)p.r(A)p.r(U)p.r(A)p.r(A)p.r(U)p.r(G)p.r(C)p.r(A)p.r(G)p.r(A)p.d(T)p.d(T)}|RNA2{r(U)p.r(C)p.r(U)p.r(G)p.r(C)p.r(A)p.r(U)p.r(U)p.r(A)p.r(U)p.r(C)p.r(U)p.r(C)p.r(C)p.r(A)p.r(U)p.r(G)p.r(A)p.r(C)p.d(A)p.d(C)}$$$RNA1{StrandType:ss}|RNA2{StrandType:as}$	115%
RNA1{r(G)p.r(U)p.r(C)p.r(C)p.r(U)p.r(A)p.r(A)p.r(G)p.r(U)p.r(G)p.r(G)p.r(C)p.r(A)p.r(U)p.r(U)p.r(C)p.r(C)p.r(A)p.r(G)p.d(T)p.d(T)}|RNA2{r(C)p.r(U)p.r(G)p.r(G)p.r(A)p.r(A)p.r(U)p.r(G)p.r(C)p.r(C)p.r(A)p.r(C)p.r(U)p.r(U)p.r(A)p.r(G)p.r(G)p.r(A)p.r(C)p.d(T)p.d(G)}$$$RNA1{StrandType:ss}|RNA2{StrandType:as}$	110%
RNA1{r(G)p.r(U)p.r(G)p.r(A)p.r(G)p.r(G)p.r(A)p.r(C)p.r(U)p.r(C)p.r(A)p.r(G)p.r(G)p.r(C)p.r(G)p.r(U)p.r(G)p.r(A)p.r(A)p.d(T)p.d(T)}|RNA2{r(U)p.r(U)p.r(C)p.r(A)p.r(C)p.r(G)p.r(C)p.r(C)p.r(U)p.r(G)p.r(A)p.r(G)p.r(U)p.r(C)p.r(C)p.r(U)p.r(C)p.r(A)p.r(C)p.d(C)p.d(A)}$$$RNA1{StrandType:ss}|RNA2{StrandType:as}$	89.4%
RNA1{r(G)p.r(U)p.r(G)p.r(U)p.r(C)p.r(A)p.r(U)p.r(G)p.r(G)p.r(A)p.r(G)p.r(A)p.r(U)p.r(A)p.r(A)p.r(U)p.r(G)p.r(C)p.r(A)p.d(T)p.d(T)}|RNA2{r(U)p.r(G)p.r(C)p.r(A)p.r(U)p.r(U)p.r(A)p.r(U)p.r(C)p.r(U)p.r(C)p.r(C)p.r(A)p.r(U)p.r(G)p.r(A)p.r(C)p.r(A)p.r(C)p.d(G)p.d(G)}$$$RNA1{StrandType:ss}|RNA2{StrandType:as}$	112%
RNA1{r(G)p.r(U)p.r(G)p.r(U)p.r(G)p.r(G)p.r(A)p.r(G)p.r(U)p.r(G)p.r(C)p.r(C)p.r(A)p.r(G)p.r(A)p.r(U)p.r(G)p.r(U)p.r(U)p.d(T)p.d(T)}|RNA2{r(A)p.r(A)p.r(C)p.r(A)p.r(U)p.r(C)p.r(U)p.r(G)p.r(G)p.r(C)p.r(A)p.r(C)p.r(U)p.r(C)p.r(C)p.r(A)p.r(C)p.r(A)p.r(C)p.d(C)p.d(T)}$$$RNA1{StrandType:ss}|RNA2{StrandType:as}$	93.9%
RNA1{r(G)p.r(U)p.r(U)p.r(C)p.r(U)p.r(G)p.r(U)p.r(G)p.r(A)p.r(U)p.r(G)p.r(U)p.r(A)p.r(C)p.r(C)p.r(C)p.r(U)p.r(A)p.r(C)p.d(T)p.d(T)}|RNA2{r(G)p.r(U)p.r(A)p.r(G)p.r(G)p.r(G)p.r(U)p.r(A)p.r(C)p.r(A)p.r(U)p.r(C)p.r(A)p.r(C)p.r(A)p.r(G)p.r(A)p.r(A)p.r(C)p.d(T)p.d(G)}$$$RNA1{StrandType:ss}|RNA2{StrandType:as}$	105%
RNA1{r(G)p.r(U)p.r(U)p.r(G)p.r(C)p.r(A)p.r(G)p.r(A)p.r(A)p.r(U)p.r(U)p.r(C)p.r(U)p.r(C)p.r(A)p.r(C)p.r(U)p.r(A)p.r(A)p.d(T)p.d(T)}|RNA2{r(U)p.r(U)p.r(A)p.r(G)p.r(U)p.r(G)p.r(A)p.r(G)p.r(A)p.r(A)p.r(U)p.r(U)p.r(C)p.r(U)p.r(G)p.r(C)p.r(A)p.r(A)p.r(C)p.d(A)p.d(T)}$$$RNA1{StrandType:ss}|RNA2{StrandType:as}$	122%
RNA1{r(U)p.r(A)p.r(A)p.r(U)p.r(G)p.r(C)p.r(C)p.r(A)p.r(A)p.r(A)p.r(C)p.r(A)p.r(G)p.r(U)p.r(C)p.r(C)p.r(U)p.r(A)p.r(A)p.d(T)p.d(T)}|RNA2{r(U)p.r(U)p.r(A)p.r(G)p.r(G)p.r(A)p.r(C)p.r(U)p.r(G)p.r(U)p.r(U)p.r(U)p.r(G)p.r(G)p.r(C)p.r(A)p.r(U)p.r(U)p.r(A)p.d(G)p.d(T)}$$$RNA1{StrandType:ss}|RNA2{StrandType:as}$	105%
RNA1{r(U)p.r(A)p.r(C)p.r(C)p.r(U)p.r(U)p.r(C)p.r(A)p.r(C)p.r(G)p.r(A)p.r(C)p.r(U)p.r(C)p.r(U)p.r(A)p.r(A)p.r(A)p.r(A)p.d(T)p.d(T)}|RNA2{r(U)p.r(U)p.r(U)p.r(U)p.r(A)p.r(G)p.r(A)p.r(G)p.r(U)p.r(C)p.r(G)p.r(U)p.r(G)p.r(A)p.r(A)p.r(G)p.r(G)p.r(U)p.r(A)p.d(A)p.d(A)}$$$RNA1{StrandType:ss}|RNA2{StrandType:as}$	110%
RNA1{r(U)p.r(A)p.r(C)p.r(U)p.r(G)p.r(G)p.r(A)p.r(C)p.r(G)p.r(G)p.r(A)p.r(U)p.r(G)p.r(G)p.r(U)p.r(G)p.r(A)p.r(G)p.r(G)p.d(T)p.d(T)}|RNA2{r(C)p.r(C)p.r(U)p.r(C)p.r(A)p.r(C)p.r(C)p.r(A)p.r(U)p.r(C)p.r(C)p.r(G)p.r(U)p.r(C)p.r(C)p.r(A)p.r(G)p.r(U)p.r(A)p.d(C)p.d(T)}$$$RNA1{StrandType:ss}|RNA2{StrandType:as}$	32.6%
RNA1{r(U)p.r(A)p.r(G)p.r(G)p.r(A)p.r(A)p.r(A)p.r(U)p.r(U)p.r(U)p.r(U)p.r(A)p.r(C)p.r(C)p.r(U)p.r(U)p.r(C)p.r(A)p.r(C)p.d(T)p.d(T)}|RNA2{r(G)p.r(U)p.r(G)p.r(A)p.r(A)p.r(G)p.r(G)p.r(U)p.r(A)p.r(A)p.r(A)p.r(A)p.r(U)p.r(U)p.r(U)p.r(C)p.r(C)p.r(U)p.r(A)p.d(A)p.d(G)}$$$RNA1{StrandType:ss}|RNA2{StrandType:as}$	86.2%
RNA1{r(U)p.r(A)p.r(U)p.r(C)p.r(U)p.r(U)p.r(A)p.r(G)p.r(G)p.r(A)p.r(A)p.r(A)p.r(U)p.r(U)p.r(U)p.r(U)p.r(A)p.r(C)p.r(C)p.d(T)p.d(T)}|RNA2{r(G)p.r(G)p.r(U)p.r(A)p.r(A)p.r(A)p.r(A)p.r(U)p.r(U)p.r(U)p.r(C)p.r(C)p.r(U)p.r(A)p.r(A)p.r(G)p.r(A)p.r(U)p.r(A)p.d(A)p.d(T)}$$$RNA1{StrandType:ss}|RNA2{StrandType:as}$	28.4%
RNA1{r(U)p.r(C)p.r(A)p.r(A)p.r(G)p.r(A)p.r(G)p.r(G)p.r(G)p.r(U)p.r(U)p.r(A)p.r(G)p.r(U)p.r(U)p.r(G)p.r(G)p.r(G)p.r(G)p.d(T)p.d(T)}|RNA2{r(C)p.r(C)p.r(C)p.r(C)p.r(A)p.r(A)p.r(C)p.r(U)p.r(A)p.r(A)p.r(C)p.r(C)p.r(C)p.r(U)p.r(C)p.r(U)p.r(U)p.r(G)p.r(A)p.d(A)p.d(G)}$$$RNA1{StrandType:ss}|RNA2{StrandType:as}$	40.8%
RNA1{r(U)p.r(C)p.r(A)p.r(C)p.r(G)p.r(A)p.r(C)p.r(U)p.r(C)p.r(U)p.r(A)p.r(A)p.r(A)p.r(A)p.r(C)p.r(A)p.r(A)p.r(A)p.r(G)p.d(T)p.d(T)}|RNA2{r(C)p.r(U)p.r(U)p.r(U)p.r(G)p.r(U)p.r(U)p.r(U)p.r(U)p.r(A)p.r(G)p.r(A)p.r(G)p.r(U)p.r(C)p.r(G)p.r(U)p.r(G)p.r(A)p.d(A)p.d(G)}$$$RNA1{StrandType:ss}|RNA2{StrandType:as}$	108%
RNA1{r(U)p.r(C)p.r(A)p.r(U)p.r(A)p.r(A)p.r(U)p.r(U)p.r(G)p.r(G)p.r(C)p.r(U)p.r(U)p.r(C)p.r(G)p.r(C)p.r(A)p.r(A)p.r(G)p.d(T)p.d(T)}|RNA2{r(C)p.r(U)p.r(U)p.r(G)p.r(C)p.r(G)p.r(A)p.r(A)p.r(G)p.r(C)p.r(C)p.r(A)p.r(A)p.r(U)p.r(U)p.r(A)p.r(U)p.r(G)p.r(A)p.d(T)p.d(G)}$$$RNA1{StrandType:ss}|RNA2{StrandType:as}$	75.5%
RNA1{r(U)p.r(C)p.r(A)p.r(U)p.r(U)p.r(C)p.r(A)p.r(G)p.r(A)p.r(A)p.r(G)p.r(A)p.r(C)p.r(U)p.r(U)p.r(C)p.r(A)p.r(G)p.r(U)p.d(T)p.d(T)}|RNA2{r(A)p.r(C)p.r(U)p.r(G)p.r(A)p.r(A)p.r(G)p.r(U)p.r(C)p.r(U)p.r(U)p.r(C)p.r(U)p.r(G)p.r(A)p.r(A)p.r(U)p.r(G)p.r(A)p.d(T)p.d(C)}$$$RNA1{StrandType:ss}|RNA2{StrandType:as}$	54.7%
